Experimental findings from patent publication US9926304B2, “1-(arylmethyl)quinazoline-2,4(1H,3H)-diones as PARP inhibitors and the use thereof” (Impact Therapeutics, Inc., priority 2011, dated 2018) are described below.

Where two headings read alike, the source gives them in different places. Where only a bound is given, the exact number is not on record here.

The test system of test [1] is Human breast cancer cell line T47D. Briefly: Cell based caspase-3 activity assay: potentiation of MMS induced apoptosis. To be noted: T47D cells, 11.1 μg/ml MMS, 24 hours, intracellular caspase-3 activity, read-out: EC50 (nM), potentiation of the apoptosis inducing activity of MMS. In short, it runs like this:
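T47D cells were exposed for 24 h to compound plus a minimally apoptotic MMS dose (medium containing 11.1 μg/ml MMS). Lysates were incubated 3 h at 37 °C with (Ac-DEVD)2-R110 caspase-3 substrate (20 μM in added buffer) and read at ex 496/em 520 nm. EC50 came from a sigmoidal fit of RFU versus log concentration.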

For test [2], the system named is SW620 human colorectal cancer cells. Briefly: MTT based cell viability assay: potentiation of the growth inhibiting activity of MMS.
Protocol: Briefly, SW620 human colorectal cancer cells were used to measure the cell growth inhibiting activity of DNA alkylating anticancer drug MMS. […] SW620 cells were grown and maintained in RPMI1640 (Gibco) medium supplemented with 10% FBS (Hyclone). In the first day of experiment, 4000 cells were seeded to each well of a 96-well cell culture plate and incubated at 37° C. and 5% CO2 in a cell culture incubator overnight. In the next day, the cell culture medium was removed. […] The serial dilutions of the reference compounds and the compounds to be tested were made with a 1:3 and 1:10 fashion in DMSO. The 10-fold concentrated solutions of these compounds were made by mixing 10 μl of the serial dilutions in DMSO with 90 μl fresh medium. The final concentration of DMSO in the medium was 1%. The cells were incubated at 37° C. in 5% CO2 cell culture incubator for additional 5 days (120 hours). Afterwards, the 96-well cell culture plate was taken out and 20 μl of MTT solution was added to each well and incubated at 37° C. for 4 h. The medium was removed and 100 μl DMSO was added to each well. The 96-well cell culture plates were shaked adequately for 10 min and read in a Varioskan Flash plate reader (Thermo Fisher Scientific) at 520 and 690 nm. The data were analyzed by Prism 5 software (GraphPad). The obtained 520 nm absorbance readings subtracting corresponding 690 nm reading were analyzed and plotted against the Log scale of the compound concentrations.
The mark [3] stands for this setting: Homo sapiens, SW-620, 120 h, read-out: IC50 (nM), potentiation of the growth inhibiting activity of MMS, SW620 cells, 1.7 μg/ml MMS, 5 days (120 hours), MTT.
[4] abbreviates: read-out: IC50 (nM), potentiation of the growth inhibiting activity of MMS, SW620 cells, 1.7 μg/ml MMS, 5 days (120 hours), MTT.

Consider `Cc1ccc2c(c1)c(=O)[nH]c(=O)n2Cc1cccc(C(=O)N2CCN(C(=O)C3CCCC3)CC2)c1` [Example 82, 1-(3-(4-(Cyclopentylcarbonyl)piperazine-1-carbonyl)benzyl)-6-methylquinazoline-2,4(1H,3H)-dione], for which the half-maximal effective concentration (EC50) in test [1] (Homo sapiens, T47D, 24 h) amounted to 154 nM. Moreover, the IC50 in test [2] (setting [3]) is 459 nM.

With `O=C(c1cccc(CCn2c(=O)[nH]c(=O)c3ccccc32)c1)N1CCN(c2ncccn2)CC1` [Example 229, 1-(3-(4-(Pyrimidin-2-yl)piperazine-1-carbonyl)phenethyl)quinazoline-2,4(1H,3H)-dione], the concentration for a half-maximal effect (EC50) in test [1] (Homo sapiens, T47D, 24 h) was more than 10000 nM. The IC50 in test [2] (setting [3]) is more than 10000 nM.

For `O=C(c1cccc(Cn2c(=O)[nH]c(=O)c3cc(Br)ccc32)c1)N1CCN(C(=O)C2CCCC2)CC1` [Example 87, 6-Bromo-1-(3-(4-(cyclopentylcarbonyl)piperazine-1-carbonyl)benzyl)quinazoline-2,4(1H,3H)-dione], in test [1] (Homo sapiens, T47D, 24 h), the EC50 came to 27 nM. For the same compound, the IC50 in test [2] (setting [3]) came to 35 nM.

`O=C(c1cccc(Cn2c(=O)[nH]c(=O)c3ccccc32)c1)N1CCC(N2CCCCC2)CC1` [Example 28, 1-(3-(4-(Piperidin-1-yl)piperidine-1-carbonyl)benzyl)quinazoline-2,4(1H,3H)-dione]: the EC50 in test [1] (Homo sapiens, T47D, 24 h) was found to be 5890 nM. In addition, the IC50 in test [2] (setting [3]) is more than 10000 nM.

On to `O=C(c1cccc(Cn2c(=O)[nH]c(=O)c3cc([N+](=O)[O-])ccc32)c1)N1CCN(C(=O)C2CCCCC2)CC1` [Example 92, 1-(3-(4-(Cyclohexylcarbonyl)piperazine-1-carbonyl)benzyl)-6-nitroquinazoline-2,4(1H,3H)-dione], for which the EC50 in test [1] (Homo sapiens, T47D, 24 h) came out at 2930 nM. The IC50 in test [2] (setting [3]) was more than 10000 nM.

On to `O=C(c1ccsc1)N1CCN(C(=O)c2cccc(Cn3c(=O)[nH]c(=O)c4ccccc43)c2)CC1` [Example 35, 1-(3-(4-(Thiophene-3-carbonyl)piperazine-1-carbonyl)benzyl)quinazoline-2,4(1H,3H)-dione], for which, in test [1] (Homo sapiens, T47D, 24 h), the EC50 was found to be 238 nM. Moreover, the IC50 in test [2] (setting [3]) was found to be 265 nM.

As to `O=C(c1ccc(F)c(Cn2c(=O)[nH]c(=O)c3ccccc32)c1)N1CCN(C(=O)c2cccs2)CC1` [Example 52, 1-(6-Fluoro-3-(4-(thiophene-2-carbonyl)piperazine-1-carbonyl)benzyl)quinazoline-2,4(1H,3H)-dione], the EC50 in test [1] (Homo sapiens, T47D, 24 h) was found to be 22 nM. The IC50 in test [2] (setting [3]) is 55 nM.

In the case of `O=C(c1cccc(Cn2c(=O)[nH]c(=O)c3ccccc32)c1Cl)N1CCN(C(=O)C2CCCC2)CC1` [Example 59, 1-(2-Chloro-3-(4-(cyclopentylcarbonyl)piperazine-1-carbonyl)benzyl)quinazoline-2,4(1H,3H)-dione], the EC50 in test [1] (Homo sapiens, T47D, 24 h) was more than 10000 nM. Further, in test [2] (setting [3]), the IC50 was more than 10000 nM.

Consider `O=C(c1cc(Cn2c(=O)[nH]c(=O)c3c(F)cccc32)ccc1F)N1CCC(c2ccccc2)CC1` [Example 214, 5-Fluoro-1-(4-fluoro-3-(4-phenylpiperidine-1-carbonyl)benzyl)quinazoline-2,4(1H,3H)-dione], for which, in test [1] (Homo sapiens, T47D, 24 h), the EC50 amounted to 654 nM. Also, the IC50 in test [2] (setting [3]) was 517 nM.

In the case of `O=C(c1ccc(Cl)c(Cn2c(=O)[nH]c(=O)c3ccccc32)c1)N1CCN(C(=O)C2CCCCC2)CC1` [Example 57, 1-(6-Chloro-3-(4-(cyclohexylcarbonyl)piperazine-1-carbonyl)benzyl)quinazoline-2,4(1H,3H)-dione], in test [1] (Homo sapiens, T47D, 24 h), the half-maximal effective concentration (EC50) is 22 nM. For the same compound, the IC50 in test [2] (setting [3]) is 46 nM.

Turning to `O=C(c1cccc(Cn2c(=O)[nH]c(=O)c3cc4c(cc32)OCCO4)c1)N1CCN(c2ncccn2)CC1` [Example 207, 6,7-Ethylenedioxo-1-(3-(4-(pyrimidin-2-yl)piperazine-1-carbonyl)benzyl)quinazoline-2,4(1H,3H)-dione], the EC50 in test [1] is more than 10000 nM. Further, in test [2] (setting [4]), the IC50 is more than 10000 nM.

Turning to `O=C(c1cccc(Cn2c(=O)[nH]c(=O)c3cc(Br)ccc32)c1)N1CCN(C(=O)C2CCCCC2)CC1` [Example 86, 6-Bromo-1-(3-(4-(cyclohexylcarbonyl)piperazine-1-carbonyl)benzyl)quinazoline-2,4(1H,3H)-dione], in test [1] (Homo sapiens, T47D, 24 h), the EC50 was found to be 27 nM. Further, the IC50 in test [2] (setting [3]) was found to be 86 nM.

As for `O=C(c1cccs1)N1CCN(C(=O)c2cc(Cn3c(=O)[nH]c(=O)c4cc(F)ccc43)ccc2F)CC1` [Example 146, 6-Fluoro-1-(4-fluoro-3-(4-(thiophene-2-carbonyl)piperazine-1-carbonyl)benzyl)quinazoline-2,4(1H,3H)-dione], the EC50 in test [1] (Homo sapiens, T47D, 24 h) was 4.1 nM. The IC50 in test [2] (setting [3]) amounted to 3.4 nM.

As to `O=C(c1cccc(Cn2c(=O)[nH]c(=O)c3ccccc32)c1F)N1CCN(C(=O)C2CCCC2)CC1` [Example 62, 1-(3-(4-(Cyclopentylcarbonyl)piperazine-1-carbonyl)-2-fluorobenzyl)quinazoline-2,4(1H,3H)-dione], the EC50 in test [1] (Homo sapiens, T47D, 24 h) is 379 nM. Also, the IC50 in test [2] (setting [3]) came to 816 nM.

Regarding `O=C(c1cccc(Cn2c(=O)[nH]c(=O)c3cc(F)ccc32)c1)N1CCN(C(=O)c2cccs2)CC1` [Example 141, 6-Fluoro-1-(3-(4-(thiophene-2-carbonyl)piperazine-1-carbonyl)benzyl)quinazoline-2,4(1H,3H)-dione], the concentration for a half-maximal effect (EC50) in test [1] (Homo sapiens, T47D, 24 h) came out at 13 nM. Further, in test [2] (setting [3]), the IC50 was found to be 12 nM.

Regarding `Nc1ccc2c(c1)c(=O)[nH]c(=O)n2Cc1cccc(C(=O)N2CCN(c3ncccn3)CC2)c1` [Example 219, 6-Amino-1-(3-(4-(pyrimidin-2-yl)piperazine-1-carbonyl)benzyl)quinazoline-2,4(1H,3H)-dione], the concentration giving a half-maximal response (EC50) in test [1] (Homo sapiens, T47D, 24 h) came to 445 nM. In test [2] (setting [3]), the IC50 was 481 nM.

Consider `O=C(c1cc(Cn2c(=O)[nH]c(=O)c3cc(Cl)ccc32)ccc1F)N1CCN(C(=O)C2CCC2)CC1` [Example 169, 6-Chloro-1-(3-(4-(cyclobutylcarbonyl)piperazine-1-carbonyl)-4-fluorobenzyl)quinazoline-2,4(1H,3H)-dione], for which the EC50 in test [1] (Homo sapiens, T47D, 24 h) amounted to 1 nM. For the same compound, the IC50 in test [2] (setting [3]) was determined as 3.4 nM.

As to `O=C(c1ccc(F)c(Cn2c(=O)[nH]c(=O)c3c(F)cccc32)c1)N1CCN(C(=O)c2ccco2)CC1` [Example 184, 5-Fluoro-1-(6-fluoro-3-(4-(furan-2-carbonyl)piperazine-1-carbonyl)benzyl)quinazoline-2,4(1H,3H)-dione], the concentration for a half-maximal effect (EC50) in test [1] (Homo sapiens, T47D, 24 h) amounted to 18 nM. The IC50 in test [2] (setting [3]) turned out to be 62 nM.

For `O=C(c1cccc(Cn2c(=O)[nH]c(=O)c3cc4c(cc32)OCO4)c1)N1CCN(c2ncccn2)CC1` [Example 216, 6,7-Methylenedioxo-1-(3-(4-(pyrimidin-2-yl)piperazine-1-carbonyl)benzyl)quinazoline-2,4(1H,3H)-dione], in test [1], the concentration for a half-maximal effect (EC50) is more than 10000 nM. For the same compound, in test [2] (setting [4]), the IC50 was more than 10000 nM.

For the compound “1-(3-(5-Bromopyrimidin-2-aminocarbamoyl)-4-fluorobenzyl)-5-fluoroquinazoline-2,4(1H,3H)-dione [Example 205]”, the EC50 in test [1] is more than 10000 nM. Besides, in test [2] (setting [4]), the IC50 was more than 10000 nM.

With `O=C(c1ccncc1)N1CCN(C(=O)c2cccc(Cn3c(=O)[nH]c(=O)c4ccccc43)c2)CC1` [Example 38, 1-(3-(4-(Pyridine-4-carbonyl)piperazine-1-carbonyl)benzyl)quinazoline-2,4(1H,3H)-dione], the EC50 in test [1] (Homo sapiens, T47D, 24 h) is 267 nM. Also, the IC50 in test [2] (setting [3]) is more than 10000 nM.

With `O=C(c1ccc(Cl)c(Cn2c(=O)[nH]c(=O)c3cc(F)ccc32)c1)N1CCN(c2ncccn2)CC1` [Example 187, 1-(6-Chloro-3-(4-(pyrimidin-2-yl)piperazine-1-carbonyl)benzyl)-6-fluoroquinazoline-2,4(1H,3H)-dione], the EC50 in test [1] (Homo sapiens, T47D, 24 h) came to 30 nM. Moreover, in test [2] (setting [3]), the IC50 is 27 nM.

Take `O=C(c1cc(Cn2c(=O)[nH]c(=O)c3cc(F)ccc32)ccc1F)N1CCN(C(=O)C2CC2)CC1` [Example 178, 1-(3-(4-(Cyclopropylcarbonyl)piperazine-1-carbonyl)-4-fluorobenzyl)-6-fluoroquinazoline-2,4(1H,3H)-dione]: the concentration for a half-maximal effect (EC50) in test [1] (Homo sapiens, T47D, 24 h) came to 11 nM. In addition, the IC50 in test [2] (setting [3]) was found to be 7.9 nM.

For `O=c1[nH]c(=O)n(Cc2cccc(CN3CCN(c4ccccn4)CC3)c2)c2ccccc12` [Example 195, 1-(3-((4-(Pyridin-2-yl)piperazin-1-yl)methyl)benzyl)quinazoline-2,4(1H,3H)-dione], the 50% effective concentration (EC50) in test [1] (Homo sapiens, T47D, 24 h) was found to be 471 nM. Further, the IC50 in test [2] (setting [3]) was 1440 nM.

Regarding `O=C(c1cccc(Cn2c(=O)[nH]c(=O)c3ccccc32)c1)N1CCN(CC2CCCC2)CC1` [Example 74, 1-(3-(4-(Cyclopentylmethyl)piperazine-1-carbonyl)benzyl)quinazoline-2,4(1H,3H)-dione], the EC50 in test [1] (Homo sapiens, T47D, 24 h) came out at 2110 nM. Also, the IC50 in test [2] (setting [3]) was more than 10000 nM.

For the compound `O=C(c1cccc(Cn2c(=O)[nH]c(=O)c3ccccc32)c1F)N1CCN(c2ncccn2)CC1` [Example 61, 1-(2-Fluoro-3-(4-(pyrimidin-2-yl)piperazine-1-carbonyl)benzyl)quinazoline-2,4(1H,3H)-dione], in test [1] (Homo sapiens, T47D, 24 h), the 50% effective concentration (EC50) was found to be 17 nM. In test [2] (setting [3]), the IC50 came out at 61 nM.

In the case of `COc1ccc(C(=O)N2CCN(C(=O)c3cccc(Cn4c(=O)[nH]c(=O)c5ccccc54)c3)CC2)cc1` [Example 12, 1-(3-(4-(4-Methoxybenzoyl)piperazine-1-carbonyl)benzyl)quinazoline-2,4(1H,3H)-dione], the EC50 in test [1] (Homo sapiens, T47D, 24 h) is 318 nM. In addition, in test [2] (setting [3]), the IC50 came out at 533 nM.

With `Cc1cccc2c(=O)n(Cc3cccc(C(=O)N4CCN(c5ncccn5)CC4)c3)c(=O)[nH]c12` [Example 225, 8-Methyl-3-(3-(4-(pyrimidin-2-yl)piperazine-1-carbonyl)benzyl)quinazoline-2,4(1H,3H)-dione], the EC50 in test [1] (Homo sapiens, T47D, 24 h) is more than 10000 nM. Besides, the IC50 in test [2] (setting [3]) is more than 10000 nM.
